Read-outs that look alike come from different tables or passages of the source.
Legend:
[1] = system: ethanol-producing yeast and bacteria; details: as low as; cited from earlier work
S. cerevisiae [2] = assay: Inhibition of ethanol production by S. cerevisiae (Banergee et al.); type: cell-based, Saccharomyces cerevisiae; details: molar conversion in parentheses
Protocol: In some embodiments, the feedstock comprises furfural. Furfural is also known as furan-2-carboxaldehyde, feral, furfuraldehyde, 2-furaldehyde, and pyromucic aldehyde. Within the art, furfural is a well-known and potent inhibitor of microbial fermentation. […] See also, Sitepu et al., “Carbon source utilization and inhibitor tolerance of 45 oleaginous yeast species,” J Ind Microbiol Biotechnol 2014;41(7):1061-1070. In some embodiments, the feedstock comprises at least 10 μM, 20 μM, 30 μM, 40 μM, 50 μM, 60 μM, 70 μM, 80 μM, 90 μM, 100 μM, 200 μM, 300 μM, 400 μM, 500 μM, 600 μM, 700 μM, 800 μM, 900 μM, 1 mM, 2 mM, 3 mM, 4 mM, 5 mM, 6 mM, 7 mM, 8 mM, 9 mM, 10 mM, 20 mM, 30 mM, 40 mM, 50 mM, 60 mM, 70 mM, 80 mM, 90 mM, or 100 mM furfural, or any ranges or subranges therebetween. In some embodiments, the feedstock comprises at least 10 μM furfural.

S. cerevisiae [3] = details: cited from earlier work
[4] = system: R. toruloides strain A, R. toruloides strain B; assay: Batch fermentation with glycerol supplement, R. toruloides; type: cell-based, Rhodosporidium toruloides; details: 50 g/L glycerol added to 30% corn stillage syrup feedstock, 6 days
Description: (§1) For the purposes of this example, the exemplary feedstock employed was a 30% corn stillage syrup-based feedstock, comprising 30% v/v corn stillage syrup, with insoluble components removed via centrifugation, diluted in deionized water.
(§2) Four strains of oleaginous microorganisms were selected to investigate the potential of the exemplary feedstock to support the growth of oleaginous microorganisms: R. toruloides strain A, R. toruloides strain B, Y. lipolytica strain po 1 g, and L. starkeyi strain CBS 1807. As a control, a canonical non-oleaginous yeast, P. pastoris strain X33, was included for comparison.
(§3) Fermentations were run in batch format for 6 days. Dry cell weight, oil titer and lipid content were evaluated as described in Example 5.
(§4) 50 g/L glycerol was added to the feedstock and fermentations were again run for 6 days. Dry cell weight and oil titer were evaluated and compared to the results of the batch fermentation.

[5] = system: Y. lipolytica strain po 1 g; assay: Batch fermentation with glycerol supplement, Y. lipolytica; type: cell-based, Yarrowia lipolytica; details: 50 g/L glycerol added to 30% corn stillage syrup feedstock, 6 days
Description: as §1, §2, §3, §4

[6] = system: L. starkeyi strain CBS 1807; assay: Batch fermentation with glycerol supplement, L. starkeyi; type: cell-based, Lipomyces starkeyi; details: 50 g/L glycerol added to 30% corn stillage syrup feedstock, 6 days
Description: as §1, §2, §3, §4

[7] = system: Pseudoperonospora cubensis; details: Zhu et al. 2018; cited from earlier work
Aspergillus fumigatus = details: Ryan et al. 2011; cited from earlier work
Trichophyton rubrum = details: Kamp et al., Mycoses 2005; cited from earlier work
Fusarium avenaceum = details: cited from earlier work
Pantoea agglomerans = details: at concentrations of 10 ppm, single inhibitor; cited from earlier work
microorganism growth = details: tens of micromolar, e.g.; cited from earlier work
R. toruloides strain A = assay: 4-hydroxybenzaldehyde spike-in titration in YPG media, R. toruloides; type: cell-based, Rhodosporidium toruloides
[8] = system: Y. lipolytica strain poll g; assay: 4-hydroxybenzaldehyde spike-in titration in YPG media, Y. lipolytica; type: cell-based, Yarrowia lipolytica; details: concentrations tested 1 μM-100 mM
[9] = system: Rhodosporidium toruloides; details: Hu et al. 2009; cited from earlier work
Trichosporon cutaneuin = details: Wang et al. 2016; cited from earlier work
Saccharomyces cerevisiae = details: concentrations in the mM range; cited from earlier work
Eutypa lata = details: as low as; lowered growth rate even after renewal of culture medium; cited from earlier work

For `O=Cc1ccc(CO)o1` [HMF, 5-(hydroxymethyl)furfural], the “concentration of significant inhibition of growth and ethanol production” value [1] is given as 8 mM.

In the case of `O=Cc1ccco1` [furfural], the “concentration inhibiting ethanol production” value (S. cerevisiae [2]; as low as) is given as ~10 mM, the “concentration of complete inhibition of ethanol production” value (S. cerevisiae [2]; complete inhibition) is given as ~40 mM and the “concentration inhibiting ethanol production” value (S. cerevisiae [3]; as low as) is given as 0.5 g/L. The “concentration of complete inhibition of ethanol production” value (S. cerevisiae [3]; complete inhibition) was 4 g/L.

In the case of `OCC(O)CO` [glycerol], the “growth (DCW) with added glycerol vs without” value [4] is reported as “dramatically increased”, the “oil production with added glycerol vs without” value [4] is reported as “dramatically increased” and the “growth (DCW) with added glycerol” value [5] is reported as “significantly less growth”. The “oil titer with added glycerol” value [5] was “only marginally improved”, the “growth (DCW) with added glycerol” value [6] was “significantly less growth” and the “oil titer with added glycerol” value [6] was “only marginally improved”.

For `O=C1CC[C@@H](C(=O)O)N1` [Pyroglutamic acid], the “inhibitor of fungal species” value [7] is listed as “known inhibitor”.

For `O=C(O)C(O)Cc1ccc(O)cc1` (centres unmarked) [Hydroxyphenyllactic acid, 2-Hydroxy-3-(p-hydroxyphenyl)propionic acid], the inhibitory concentration (Aspergillus fumigatus) is given as 5 mg/mL.

In the case of `NCC(=O)CCC(=O)O` [5-aminolevulinic acid], the “concentration showing inhibition of Trichophyton rubrum” value (Trichophyton rubrum) is given as “above 10 mM”.

In the case of `CC1(O)CCOC(=O)C1` (racemic) [mevalonic acid lactone, 4-Hydroxy-4-methyltetrahydro-2H-pyran-2-one], the “growth of Fusarium avenaceum” value (Fusarium avenaceum) is given as “inhibit the growth”, the “inhibition of growth of Pantoea agglomerans” value (Pantoea agglomerans) is given as 10-15% and the “concentration at which it can act as an inhibitor for microorganism growth” value (microorganism growth) is given as 67 µM.

In the case of `O=Cc1ccc(O)cc1` [4-hydroxybenzaldehyde], the “increase in oil titer as compared to the no inhibitor control” value (R. toruloides strain A; 100 μM condition) is reported as “over 50%”, the “increase in oil titer as compared to the no inhibitor control” value (R. toruloides strain A; 10 mM condition) is reported as “over 50%” and the “growth (DCW) of the R. toruloides strain” value (R. toruloides strain A; 100 mM inhibitor in YPG media) is reported as “inhibited altogether”. For the same compound, the “growth (DCW) of the R. toruloides strain” value (R. toruloides strain A; all concentrations tested (1 μM-10 mM) except 100 mM, YPG media, vs no inhibitor control) was “unaffected”, the “effect on oil titer of R. toruloides” value (R. toruloides strain A; increasing concentrations between 1 μM and 10 mM) was “lipogenic effect” and the “effect on growth of the Y. lipolytica strain” value [8] was “no statistically significant effect”. The “effect on oil production of the Y. lipolytica strain” value [8] was “no statistically significant effect”, the “concentration showing inhibition of Rhodosporidium toruloides” value [9] was 9 mM and the “concentration showing inhibition of Trichosporon cutaneum” value (Trichosporon cutaneuin) was 16 mM.

For `O=C(O)c1ccccc1O` [salicylic acid], the “effects against Saccharomyces cerevisiae” value (Saccharomyces cerevisiae) is listed as “fungicidal effects”, the “concentration causing fungistatic effects in Eutypa lata” value (Eutypa lata) is listed as 1 mM and the inhibitory concentration (Aspergillus fumigatus) is listed as 0.25 mg/mL.
